Reference: the METLIN SMRT retention time set (Domingo-Almenara et al. 2019)

Assay: gradient 5% acetonitrile 3 min, to 50% in 2 min, to 85% in 15 min, held 3 min, 100 µL/min
Conditions: column: Zorbax Extend-C18 2.1 x 50 mm; eluents: water / acetonitrile, 0.1% formic acid
In short: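 Values are retention times taken from adduct peaks that software picked and an analyst inspected. The pure standards were run as mixtures of ~100 molecules on HPLC linked to a quadrupole time-of-flight mass spectrometer, in positive and negative ionization mode. A Zorbax Extend-C18 column (2.1 × 50 mm, 1.8 μm) was used at 100 μL/min with water and acetonitrile, each including 0.1% formic acid.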

RP-LC retention time [s] | Compound
1100 | O=c1c2cc(-c3ccc(F)cc3)nn2cnn1Cc1nc(-c2ccc(F)cc2)no1
1050 | O=S(=O)(c1ccc2nc(N3CCN(c4ccc(F)cc4)CC3)ccc2c1)N1CCCCC1
732 | Cc1ccc2nc(N3CCN(c4ccc(F)cc4)CC3)c(-c3noc(C)n3)cc2c1
1040 | COc1ccc(S(=O)(=O)N2CCCC(C(=O)Nc3cccc(F)c3)C2)cc1C (stereo unspecified)
715 | Cc1ccc(NC(=O)N2CC(n3cnnc3-c3ccccc3)C2)cc1C
595 | O=C(CCCc1nnc2c(=O)n(-c3ccc(Cl)cc3)ccn12)N1CCN(c2ccccn2)CC1
615 | Cc1cccc(-c2nc3nc(C)cc(N(CCO)CCO)n3n2)c1
872 | CCc1noc(NC(C)=O)c1-c1ccc(C)c(S(=O)(=O)Nc2ccc(F)cc2Cl)c1
740 | CCN1c2cc(F)ccc2C(=O)NC12CCN(C(=O)c1ccc(OC)c(OC)c1)CC2
840 | COc1ccc(C)cc1NC(=O)Cn1nc2nc(N3CCCCC3C)ccn2c1=O (stereo unspecified)
679 | CCN(CC)c1nc(C(=O)Nc2ccc(C(C)=O)cc2)nc2nc(C)cc(C)c12
1080 | COc1ccc(Cl)cc1S(=O)(=O)N1CCCC(C(=O)Nc2ccc(C)c(C)c2)C1 (stereo unspecified)
1110 | COC(=O)c1sccc1NC(=O)Cn1c(C)cc(C)c(-c2nc(-c3ccc(C)cc3)no2)c1=O
836 | COC(=O)c1cc(OCC(=O)Nc2ccc(F)cc2)c2cc(F)ccc2n1
962 | CCn1c(=O)sc2cc(S(=O)(=O)N3CCC(C(=O)Nc4cccc(C)c4)CC3)ccc21
649 | CCCN(CCC)CCNC(=O)C1CCC(=O)N(c2ccc(OC)cc2)C1c1ccc(F)cc1 (stereo unspecified)
665 | c1ccc(-c2nc(-c3ccnc(N4CCOCC4)c3)no2)nc1
921 | Cc1cccc(CNC(=O)C2(c3ccc(NS(C)(=O)=O)cc3)CCCCC2)c1
897 | COC(=O)C1=CN(c2cccc(Cl)c2)c2cc(F)ccc2S1(=O)=O
584 | Cc1nnc(N2CCCC(C(=O)N3CCN(c4ccccn4)CC3)C2)c2nn(-c3ccccc3)c(C)c12 (stereo unspecified)
818 | Cc1ccccc1Cn1nc2ccc(S(=O)(=O)N3CCOCC3)cn2c1=O

RP-LC retention time [s] | Compound
938 | Cc1ccc2c(c1)cc(S(=O)(=O)c1ccccc1)c(=O)n2CC(=O)NCCC(C)C
723 | Clc1cccc(CN2CCCN(c3ncccc3-c3nc(C4CC4)no3)CC2)c1
668 | COc1ccc(-c2nnc3n2CCN(Cc2ccccc2C#N)C3)cc1
1090 | COc1ccc(-n2nnc(-c3nc(-c4ccccc4OC)cs3)c2N)cc1
801 | O=S(=O)(NCc1cccnc1-c1ccc(F)cc1)c1ccc(Br)cc1
759 | CCN(CC)C(=O)c1c2c(cn(-c3ccc(F)cc3)c1=O)C(=O)CC(C)(C)C2
923 | COc1ccc(N2C(=O)C3N=NN(c4ccc(F)cc4)C3C2=O)cc1 (stereo unspecified)
1050 | O=C(COc1ccccc1)Nc1nc(-c2ccc(F)cc2)cs1
676 | O=C1C2CC=CCC2C(=O)N1c1ccc(N2CCN(c3ccccn3)CC2)c([N+](=O)[O-])c1 (stereo unspecified)
940 | CCOC(=O)c1nc(Nc2cccc(SC)c2)c2ccccc2n1
943 | Cc1ccc(CCNC(=O)CN2C(=O)C3CCCCN3c3ccc(S(=O)(=O)N(C)C)cc32)cc1 (stereo unspecified)
929 | CCc1csc(-c2ccc(N3CCN(C(=O)c4ccc(C#N)cc4F)CC3)nc2)n1
698 | Cc1ccc2[nH]cc(CCN3CC(C(=O)N4CCc5ccccc5C4)CC3=O)c2c1 (stereo unspecified)
819 | Cc1cc(-c2ccc(C(C)C)c(S(=O)(=O)N3CCN(c4ccccn4)CC3)c2)on1
1010 | COCCn1cc(C(=O)Nc2ccc(F)cc2F)c2nn(-c3ccccc3)c(=O)c-2c1
1010 | Cc1cccc(N2CCN(c3cc(-c4ccccc4)nc4c(-c5ccccc5)cnn34)CC2)n1
954 | Cn1cnc2c(C(=O)Nc3ccc(Cl)cc3)nn(-c3ccccc3)c2c1=O
633 | COc1ccc(CNC(=O)C2CCN(c3cnc4nccnc4c3)CC2)cc1OC
856 | COc1cccc2cc(C(=O)N3CC(c4nc(-c5cccs5)no4)C3)oc12
1340 | CC1CCN(S(=O)(=O)c2ccc3nn(CCOc4ccc(F)cc4)c(=O)n3c2)CC1

Second part, the compound before the results:

Compound | RP-LC retention time [s]
CCNc1cc(N2CCCC(CCC(=O)N3CCCN(c4ncccn4)CC3)C2)ncn1 (stereo unspecified) | 608
CCCn1cc(CCNS(=O)(=O)c2cccc(Cl)c2)c2cccnc21 | 804
CCOC(=O)c1[nH]c(C)c(CCC(=O)N2CCC(C(=O)NCCN3CCCCC3)CC2)c1C | 590
CCOC(=O)c1sc(NC(=O)C2CCC2)nc1-c1ccccc1 | 1010
COc1ccccc1C(=O)Nc1c2c(nn1C(C)(C)C)CS(=O)(=O)C2 | 740
Cc1nc(C)c(C(=O)NC2CCc3nn(CC4CC4)c(=O)n3CC2)s1 (stereo unspecified) | 597
COc1ccc2c(c1)C1(CCN(C(=O)Nc3ccc(C)cc3)C1)C(=O)N2 (stereo unspecified) | 745
CCn1cc(S(=O)(=O)N2C[C@@H](COC)[C@H](c3ccccn3)C2)cn1 | 625
NC(=O)C1CCN(C2CC(=O)N(Cc3ccccc3)C2=O)CC1 (stereo unspecified) | 579
Cc1cc(=O)n2c(-c3cccc(NC(=O)Cc4cccs4)c3)csc2n1 | 696
Cc1[nH]c2ccccc2c1C(=O)C(=O)Nc1ccc2c(c1)OCO2 | 782
CC(C)Oc1ccccc1CN1CC(F)(F)C[C@H]1COc1ccncc1 | 752
O=C(Nc1cccc(C(F)(F)F)c1)C1CCN(C(=O)C2Sc3ccccc3NC2=O)CC1 (stereo unspecified) | 862
COc1cc(CNCCc2ccc(S(N)(=O)=O)cc2)ccc1Oc1nnnn1-c1ccccc1 | 672
CCn1c(CC2CCN(C(=O)NCCc3ccccc3)C2)nc2cccnc21 (stereo unspecified) | 588
COc1ccc2c(c1)c(CN1CCC(C(=O)NCc3ccccc3Cl)CC1)cn2C | 699
COc1ccccc1-c1[nH]ncc1CN1CC(F)(F)C[C@H]1CN1CCOCC1 | 555
Cc1cc(C)cc(Oc2nccn3c(=O)n(CC(=O)NCc4ccccc4)nc23)c1 | 860
COc1ccc2c(c1)C1(CCN(C(=O)c3ccc(OC)c(OC)c3)C1)C(=O)N2C (stereo unspecified) | 886
Cc1noc(-c2ccnc(-n3cnc(C(=O)NCc4ccccc4)c3)c2)n1 | 806
Cc1cccc(NS(=O)(=O)c2cc(-c3[nH]ncc3C(=O)N(C)C)oc2C)c1C | 712
CCN1C(=O)C2(c3ccccc31)c1[nH]c3ccccc3c1CCN2C(C)=O (stereo unspecified) | 779
CNC(=O)C1CCN(c2nc3ncn(CC(=O)Nc4c(C)cc(C)cc4C)c(=O)c3s2)CC1 | 646

Compound | RP-LC retention time [s]
O=C(NCc1ccc2c(c1)OCO2)C1CCc2nc(N3CCCC3)ncc2C1 (stereo unspecified) | 631
Cc1cccc(NS(=O)(=O)c2cc3n(c2)CCN(CC(C)C)C3=O)c1C | 852
CCN1CCn2cc(S(=O)(=O)Nc3ccc(F)c(F)c3)cc2C1=O | 727
CCN(Cc1ccccc1)C(=O)c1ncn2c1C(=O)N(C1CC1)C(C)(C(=O)NCc1ccccc1)C2 (stereo unspecified) | 742
Cn1c(C2CCN(C(=O)c3cc4c(s3)CCCC4)C2)nc2cccnc21 (stereo unspecified) | 797
CN(C)c1cccc(C(=O)N2CCN(S(=O)(=O)C3CC3)CC2)c1 | 630
CCN1C(=O)C(C)(C(=O)Nc2ccc(F)cc2F)Oc2cccnc21 (stereo unspecified) | 875
CC(C)N1CCN(c2ccc3nnc(C4CCC4)n3n2)CC1 | 548
CCc1nnc(-c2ccc3ccn(CC(=O)Nc4cc(OC)ccc4OC)c3c2)o1 | 770
CCN1CCN(C(=O)C2CCc3sc(C(=O)N(CC)CC)cc3C2)CC1 (stereo unspecified) | 683
Cc1nn(-c2nc(CC(=O)Nc3nc(-c4ccccc4)cs3)cs2)c(C)c1Cl | 1270
CCN(CC)C(=O)c1ccc2c(c1)nnn2CCNC(=O)Nc1ccc(Br)cc1F | 787
Cc1cccc(CNC(=O)c2cc3n(n2)CC(C)(C(=O)NCCC(C)C)N(C)C3=O)c1 (stereo unspecified) | 801
CCCCOc1ccc(C(=O)Nc2nc(-c3ccc(OC)c(C)c3)cs2)cc1 | 1240
CCCCOc1ccc(CNC(=O)CN2CC=C(c3cnn(-c4ccccc4)c3)CC2)cc1 | 826
COc1ccc(-c2csc(NC(=O)c3cccc([N+](=O)[O-])c3C(=O)O)n2)cc1 | 938
Cc1cc(-c2nnc(NC(=O)c3cc4cc([N+](=O)[O-])ccc4s3)o2)n(C)n1 | 789
COc1ccc(N/C=C2\C(=O)CCc3c2oc2cc(Cl)c(O)c(Cl)c32)cc1 | 1170
CCCN(CC1CCOC1)C(=O)Nc1cc(Cl)ccc1OC (stereo unspecified) | 961
COc1ccccc1NC(=O)C1CCN(C(=O)C2Sc3ccccc3NC2=O)CC1 (stereo unspecified) | 753
Cc1nc(C)c(C(=O)N2CCCCCCNC(=O)[C@@H]3CCCC[C@@H]32)s1 | 727
CC(=O)N1CCc2cc(CNS(=O)(=O)c3ccccc3)ccc21 | 691
